The target in this assay is Cytochrome P450 2C9 (Homo sapiens, UniProt P11712). The assay is described as follows: Inhibition of CYP2C9. It is filed as ADME.
Sequence of Cytochrome P450 2C9 (P11712 whole entry): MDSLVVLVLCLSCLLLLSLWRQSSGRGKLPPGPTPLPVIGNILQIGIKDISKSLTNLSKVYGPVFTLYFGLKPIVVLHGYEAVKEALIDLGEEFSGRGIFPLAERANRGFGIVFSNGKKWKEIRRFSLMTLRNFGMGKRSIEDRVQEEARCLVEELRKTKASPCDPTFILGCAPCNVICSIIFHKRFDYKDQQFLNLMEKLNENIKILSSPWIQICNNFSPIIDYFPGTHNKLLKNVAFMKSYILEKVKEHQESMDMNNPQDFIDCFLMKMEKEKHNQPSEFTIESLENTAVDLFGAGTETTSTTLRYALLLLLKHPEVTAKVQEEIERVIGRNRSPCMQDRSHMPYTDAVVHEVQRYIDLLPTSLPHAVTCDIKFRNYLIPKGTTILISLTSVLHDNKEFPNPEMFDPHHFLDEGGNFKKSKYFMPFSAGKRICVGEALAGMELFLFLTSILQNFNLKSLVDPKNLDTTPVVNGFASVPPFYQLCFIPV

A word on the Ki: it is the dissociation constant of the complex between target and ligand, obtained from inhibition or displacement. As to `CCc1oc2ccccc2c(=O)c1C(=O)c1cc(Br)c(O)c(Br)c1`, the affinity, expressed as Ki, was 101 nM.
